Assay results as given in patent publication US6846825B1, “Antibacterial agents” (British Biotech Pharmaceuticals Limited, priority 1999, dated 2005).
≈ marks a conversion by molar mass, not a printed value. Where two headings read alike, the source gives them in different places.

Key:
Type in all cases: cell-based
E. coli strains DH5α = test: Minimal inhibitory concentration (MIC), two fold serial dilutions in 2×YT broth; conditions: 37° C., 18 hours, lowest concentration that inhibited visible growth
Protocol: (§1) Minimal inhibitory concentrations (MIC) of compounds of the invention against E. coli strains DH5α (Genotype; F-ω80dlacZΔM15Δ(lacZYA-argF)U169 deoR recA1 endA1 hsdR17(rk^−,mk^+)phoA supE44λ^−thi-1 gyrA96 relA1) obtained from Gibco BRL Life Technologies, or Staphylococcus capitis (American Type Culture Collection number 35661) were determined as follows. Stock solutions of each test compound were prepared by dissolution of the compound in dimethylsulfoxide at 10 mM. For the determination of the minimal inhibitory concentration, two fold serial dilutions were prepared in 2×YT broth (typtone 16 g/1, yeast extract 10 g/1, sodium chloride 5 g/1 obtained from BIO 101 Inc, 1070 Joshua Way, Vista, Calif. 92083, USA) to yield 0.05 ml compound-containing medium per well. Inoculate were prepared from cultures grown overnight in 2×YT broth at 37° C. Cell densities were adjusted to absorbance at 660 nm (A660)=0.1; the optical density-standardised preparations were diluted 1:1000 in 2×YT broth; and each well inoculated with 0.05 ml of the diluted bacteria. Microtiter plates were incubated at 37° C. for 18 hours in a humidified incubator. The MIC (μM) was recorded as the lowest drug concentration that inhibited visible growth.

[1] = test system: Staphylococcus capitis (American Type Culture Collection number 35661); test: as above; conditions: S. capitis ATCC 35661, 2×YT broth, 37° C., 18 hours, lowest concentration that inhibited visible growth
Protocol: as §1

Moraxella catarrhalis = test: MIC against respiratory tract pathogens, Microdilution Broth Method (NCCLS)
Protocol: (§2) In another experiment, the MICs of the compound of Example 91 were determined against certain respiratory tract pathogens, using the Microdilution Broth Method according to the approved standard of the National Committee for Clinical Laboratory Standards procedure (Methods for dilution antimicrobial susceptibility tests for bacteria that grow aerobically—Fourth Edition ISBN 1-56238-309-4).

Streptococcus pneumoniae = test: as above
Protocol: as §2

Haemophilus Influenza = test: as above
Protocol: as §2

[2] = Staphylococcus capitis, ATCC35661

SMILES | MIC (E. coli strains DH5α) [µM] | MIC [1] [µM] | MIC (E. coli strains DH5α; Escherichia coli) [µM] | MIC [1, 2] [µM] | also measured
CC(C)(C)[C@H](NC(=O)[C@H](CC1CCCC1)CN(O)C=O)C(=O)N1CCN(Cc2ccccc2C#N)CC1 [Example 50, N-{1S-[4-(2-Cyano-benzyl)-piperazine-1-carbonyl]-2,2-dimethyl-propyl}-2R-cyclopentylmethyl-3-(formyl-hydroxy-amino)-propionamide] | 200 (≈ 102 µg/mL) | 6.2 (≈ 3.17 µg/mL) |  |  | 
CC(C)(C)C(NC(=O)[C@H](CC1CCCC1)CN(O)C=O)C(=O)N1CCC(Oc2ccc(C(=O)N3CCC(O)CC3)cc2)CC1 (stereo partly drawn) [Example 91, 2R-Cyclopentylmethyl-3-(formyl-hydroxy-amino)-N-(1S-{4-[4-(4-hydroxy-piperidine-1-carbonyl)-phenoxy]-piperidine-1-carbonyl}-2,2-dimethyl-propyl)-propionamide] |  |  | 200 (≈ 123 µg/mL) | 25 (≈ 15.4 µg/mL) | MIC (Moraxella catarrhalis; Moraxella catarrhalis 2412): 0.5 µg/mL (≈ 0.813 µM); MIC (Moraxella catarrhalis; Moraxella catarrhalis 2413): 0.25 µg/mL (≈ 0.407 µM); MIC (Streptococcus pneumoniae; Streptococcus pneumoniae (PIP) 2391): 0.25 µg/mL (≈ 0.407 µM); MIC (Streptococcus pneumoniae; Streptococcus pneumoniae (PRP) 2390): 0.25 µg/mL (≈ 0.407 µM); MIC (Streptococcus pneumoniae; Streptococcus pneumoniae (PSP) 2403, read-out: MIC): 0.25 µg/mL (≈ 0.407 µM); MIC (Haemophilus Influenza; Haemophilus Influenza 1390): 1 µg/mL (≈ 1.63 µM); MIC (Haemophilus Influenza; Haemophilus Influenza 1414): 4 µg/mL (≈ 6.51 µM)
CCCC[C@H](CN(O)C=O)C(=O)N1CCN(CCOCCO)CC1 [Example 29, N-Hydroxy-N-(2R-{4-[2-(2-hydroxy-ethoxy)-ethyl]-piperazine-1-carbonyl}-hexyl)-formamide] |  |  | 100 (≈ 34.5 µg/mL) |  | 
CCCC[C@H](CN(O)C=O)C(=O)N[C@H](C(=O)N1CCN(S(=O)(=O)c2ccc(-c3ccccc3)cc2)CC1)C(C)(C)C [Example 78, 2R-[(Formyl-hydroxy-amino)-methyl]-hexanoic acid {1S-[4-(biphenyl-4-sulfonyl)-piperazine-1-carbonyl]-2,2-dimethyl-propyl}-amide] |  | 200 (≈ 117 µg/mL) |  |  | 
CC(C)(C)[C@H](NC(=O)[C@H](CC1CCCC1)CN(O)C=O)C(=O)N1CCN(Cc2ccc3c(c2)OCO3)CC1 [Example 57, N-[1S-(4-Benzo[1,3]dioxol-5-ylmethyl-piperazine-1-carbonyl)-2,2-dimethyl-propyl]-2R-cyclopentylmethyl-3-(formyl-hydroxy-amino)-propionamide] |  |  | 100 (≈ 53.1 µg/mL) | 6.2 (≈ 3.29 µg/mL) | 
CCCC[C@H](CN(O)C=O)C(=O)N[C@H](C(=O)N1CCN(C(=O)c2sc(C)nc2C)CC1)C(C)(C)C [Example 74, 2R-[(Formyl-hydroxy-amino)-methyl]-hexanoic acid {1S-[4-(2,4-dimethyl-thiazole-5-carbonyl)-piperazine-1-carbonyl]-2,2-dimethyl-propyl}-amide] | 200 (≈ 102 µg/mL) | 25 (≈ 12.7 µg/mL) |  |  | 
CC(C)(C)[C@H](NC(=O)[C@H](CC1CCCC1)CN(O)C=O)C(=O)N1CCN(Cc2ccc3ccccc3c2)CC1 [Example 54, 2R-Cyclopentylmethyl-N-[2,2-dimethyl-1S-(4-naphthalen-2-ylmethyl-piperazine-1-carbonyl)-propyl]-3-(formyl-hydroxy-amino)-propionamid] | 200 (≈ 107 µg/mL) | 3.1 (≈ 1.66 µg/mL) |  |  | 
CCCC[C@H](CN(O)C=O)C(=O)N[C@H](C(=O)N1CCN(Cc2ccccc2C#N)CC1)C(C)(C)C [Example 44, 2R-[(Formyl-hydroxy-amino)-methyl]-hexanoic acid {1S-[4-(2-cyano-benzyl)-piperazine-1-carbonyl]-2,2-dimethyl-propyl}-amide] | 200 (≈ 97.1 µg/mL) | 12 (≈ 5.83 µg/mL) |  |  | 
CCCC[C@H](CN(O)C=O)C(=O)N[C@H](C(=O)N1CCN(C(=O)c2snnc2C)CC1)C(C)(C)C [Example 69, 2R-[(Formyl-hydroxy-amino)-methyl]-hexanoic acid {2,2-dimethyl-1S-[4-(4-methyl-[1,2,3]thiadiazole-5-carbonyl)-piperazine-1-carbonyl]-propyl}-amide] | 200 (≈ 99.3 µg/mL) | 25 (≈ 12.4 µg/mL) |  |  | 
CCCC[C@H](CN(O)C=O)C(=O)N[C@H](C(=O)N1CCN(C(=O)c2ccc3c(c2)OCO3)CC1)C(C)(C)C [Example 55, 2R-[(Formyl-hydroxy-amino)-methyl]-hexanoic acid {1S-[4-(3a,7a-dihydro-benzo[1,3]dioxole-5-carbonyl)-piperazine-1-carbonyl]-2,2-dimethyl-propyl}-amide] |  |  | 200 (≈ 104 µg/mL) | 6.2 (≈ 3.22 µg/mL) | 
CCCC[C@H](CN(O)C=O)C(=O)N[C@H](C(=O)N1CCN(Cc2cccnc2)CC1)C(C)(C)C [Example 56, 2R-[(Formyl-hydroxy-amino)methyl]-hexanoic acid [2,2-dimethyl-1S-(4-pyridin-3-ylmethyl-piperazine-1-carbonyl)-propyl]-amide] |  |  | 50 (≈ 23.1 µg/mL) | 25 (≈ 11.5 µg/mL) | 
CCCC[C@H](CN(O)C=O)C(=O)N1CCC(c2ccccc2)CC1 [Example 24, N-Hydroxy-N-[2R-(4-phenyl-piperidine-1-carbonyl)-hexyl]-formamide] |  |  |  | 100 (≈ 33.2 µg/mL) | 
CCCC[C@H](CN(O)C=O)C(=O)N[C@H](C(=O)N1CCN(C(=O)c2ccc(-c3ccccc3)cc2)CC1)C(C)(C)C [Example 79, 2R-[(Formyl-hydroxy-amino)-methyl]-hexanoic acid {1S-[4-(biphenyl-4-carbonyl)-piperazine-1-carbonyl]-2,2-dimethyl-propyl}-amide] |  | 6.25 (≈ 3.44 µg/mL) |  |  | 
CN(C)C(=O)c1ccc(OC2CCN(C(=O)[C@@H](NC(=O)[C@H](CC3CCCC3)CN(O)C=O)C(C)(C)C)CC2)cc1 [Example 88, 4-(1S-{2-[2R-Cyclopentylmethyl-3-(formyl-hydroxy-amino)-propionylamino]-3,3-dimethyl-butyryl}-piperidin-4-yloxy)-N,N-dimethyl-benzamide] |  |  | 100 (≈ 55.9 µg/mL) | 6.2 (≈ 3.46 µg/mL) | 
CC(C)(C)C(NC(=O)[C@H](CC1CCCC1)CN(O)C=O)C(=O)N1CCC(Oc2ccc(C(=O)N3CCOCC3)cc2)CC1 (stereo partly drawn) [Example 89, 2R-Cyclopentylmethyl-N-(2,2-dimethyl-1S-{4-{4-(morpholine-4-carbonyl)-phenoxy}-piperidine-1-carbonyl}-propyl)-3-(formyl-hydroxy-amino)-propionamide] |  |  | 200 (≈ 120 µg/mL) | 25 (≈ 15 µg/mL) | 
CC(C)(C)[C@H](NC(=O)[C@H](CC1CCCC1)CN(O)C=O)C(=O)N1CCN(Cc2ccc(-c3ccccc3)cc2)CC1 [Example 52, N-[1S-(4-Biphenyl-4-ylmethyl-piperazine-1-carbonyl)-2,2-dimethyl-propyl]-2R-cyclopentylmethyl-3-(formyl-hydroxy-amino)-propionamide] | 200 (≈ 113 µg/mL) | 6.2 (≈ 3.49 µg/mL) |  |  | 
